# Reference: patent US20210283110A1, “COMPOUND FOR USE IN THE TREATMENT OF A DISEASE CHARACTERIZED BY DYSREGULATED MUCUS PRODUCTION AND/OR SECRETION” (UNIVERSITÄT REGENSBURG, priority 2018, published 2021)
# Entries after “also recorded” stand apart in the source; their conditions may differ.
# Assays:
# [1] = system: airways of OVA-sensitized mice; test: OVA-induced allergic airway inflammation in mice (alcian blue mucus staining, airway cross section, CD45 infiltration); assay type: in vivo, mouse
# Procedure: Intestinal sections were collected for histological analyses. Mouse airways were fixed by transcardial fixation and were embedded in paraffin or were used as cryosections. For paraffin sections, tissues were fixed in 4% paraformaldehyde (PFA), 0.2% picric acid and 3.4% sucrose in PBS, and were washed in methanol before embedding in paraffin. Sections were stained according to standard Periodic acid-Schiff (PAS) or Alcian Blue methods and assessed by light microscopy.
# Mouse models were performed according to the previous example. For investigating mucus, IL-8 release, and leukocytes, tissues were fixed using 4% paraformaldehyde (PFA), 0.2% picric acid and 3.4% sucrose in PBS and washed in methanol before embedding in paraffin. Mucus was analyzed using standard Periodic acid-Schiff (PAS) or alcian blue staining. MUC5AC was stained using anti-MUC5AC mouse antibody (1:200, Abcam, ab3649) and a secondary antibody conjugated with Alexa488 (Life Technologies, A-21206). Nuclei were stained with Hoe33342 (0.1 μg/ml PBS, Aplichem, Darmstadt, Germany). Quantikine ELISA kits (R&D systems) were used to measure secretion of the cytokine IL-8 by Calu3 cells.
# All methods were performed as described in the previous examples. Mice were treated with ovalbumin (OVA) to induce an allergic reaction which leads to airway inflammation. […] After allergization with OVA and development of airway inflammation, excessive mucus production and inflammatory infiltration with immune cells is observed. Activation of cholinergic receptors using the muscarinic agonist carbachol (CCH) results in constriction of the airways and secretion of mucus (FIG. 5A-C). 3-day treatment using niclosamide reduced the CCH-induced constriction of the airways (FIG. 1). Furthermore, mucus secretion and inflammatory infiltrates were reduced.
# OVA-induced allergic airway inflammation in mice caused pronounced airway goblet cell metaplasia. […] NFA is a well know inhibitor of Ca^2+ activated Cl^− channels and inhibits TMEM16A. The two main TMEM16 paralogs expressed in airway epithelial and smooth muscle cells, TMEM16A and TMEM16F, were expressed in HEK293 cells and the whole cell currents upon activation by the Ca^2+ ionophore ionomycin (Iono) were measured. […] Novel therapeutic strategies for the treatment of inflammatory airway diseases such as CF may therefore consider the use of inhibitors of TMEM16.
# The present inventors disclose that airway epithelial knockout of TMEM16A causes a defect in basal, i.e. ATP-mediated mucus secretion. […] Mucus synthesis under inflammatory (OVA) conditions and mucus release upon cholinergic stimulation, however, were not compromised (FIG. 16C). […] Because basal mucus production still occurs in the absence of TMEM16A, other TMEM16 paralogs may also be in charge of mucus synthesis.
# [2] = target: T1, TMEM16F (Homo sapiens, UniProt Q4KMQ2); test: Whole cell currents in HEK293 cells expressing TMEM16F (patch clamp); assay type: cell-based; details: overexpressed TMEM16F; niclosamide 1 μM
# T1 construct: expressed in transfected cells; host or cells: HEK293 cells
# T1 sequence (Q4KMQ2 1-910): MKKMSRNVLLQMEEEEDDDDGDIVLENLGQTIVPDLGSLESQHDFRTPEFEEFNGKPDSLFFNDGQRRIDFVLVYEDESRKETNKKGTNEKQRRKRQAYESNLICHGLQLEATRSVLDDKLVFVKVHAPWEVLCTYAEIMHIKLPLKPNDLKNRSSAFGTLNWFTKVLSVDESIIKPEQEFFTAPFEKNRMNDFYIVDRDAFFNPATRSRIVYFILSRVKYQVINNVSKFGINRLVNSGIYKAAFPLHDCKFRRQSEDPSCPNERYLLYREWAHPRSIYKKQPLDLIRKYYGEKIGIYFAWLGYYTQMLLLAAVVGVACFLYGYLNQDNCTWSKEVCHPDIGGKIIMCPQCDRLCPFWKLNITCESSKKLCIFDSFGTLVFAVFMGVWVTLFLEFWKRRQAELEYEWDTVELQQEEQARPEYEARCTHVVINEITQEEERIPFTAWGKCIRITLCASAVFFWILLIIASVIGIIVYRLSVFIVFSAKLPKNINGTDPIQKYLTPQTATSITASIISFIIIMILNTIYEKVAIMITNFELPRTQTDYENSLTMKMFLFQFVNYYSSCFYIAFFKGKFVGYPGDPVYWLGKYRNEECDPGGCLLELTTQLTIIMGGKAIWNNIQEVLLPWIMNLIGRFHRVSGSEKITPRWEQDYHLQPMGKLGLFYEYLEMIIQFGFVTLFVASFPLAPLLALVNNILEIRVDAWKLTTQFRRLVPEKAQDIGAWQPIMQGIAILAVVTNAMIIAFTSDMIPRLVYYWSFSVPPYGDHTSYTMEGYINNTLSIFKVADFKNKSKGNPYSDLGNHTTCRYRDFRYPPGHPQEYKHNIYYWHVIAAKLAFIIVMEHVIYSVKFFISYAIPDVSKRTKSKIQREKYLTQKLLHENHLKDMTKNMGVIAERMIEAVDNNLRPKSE
# Procedure: FIG. 14: The TMEM16-inhibitor niflumic acid attenuates inflammatory airway disease. • A,B) OVA-sensitization induced pronounced goblet cell metaplasia as indicated by alcian blue positivity. Exposure to carbachol (CCH, 25 mg/ml, nebulizer) induced release of mucus and airway […]. Bars indicate […]. […] Mean±SEM; *significant inhibition by NFA (paired ttest). # significant difference when compared to OVA (unpaired t-test). (n) number of airways analysed or number of cells examined.
# FIG. 15: Inhibition of TMEM16A and TMEM16F by niclosamide. • A) TMEM16A whole cell currents in overexpressing HEK293 cells. […]
# OVA-induced allergic airway inflammation in mice caused pronounced airway goblet cell metaplasia. […] The two main TMEM16 paralogs expressed in airway epithelial and smooth muscle cells, TMEM16A and TMEM16F, were expressed in HEK293 cells and the whole cell currents upon activation by the Ca^2+ ionophore ionomycin (Iono) were measured. […]
# Similar to TMEM16A, also overexpressed TMEM16F was inhibited by niclosamide (FIG. 15D). […] TMEM16A was activated by ionomycin and TMEM16A currents were measured as iodide quenching.
compound,measurement,setting,value
"O=C(Nc1ccc([N+](=O)[O-])cc1Cl)c1cc(Cl)ccc1O [niclosamide, 5-chloro-N-(2-chloro-4-nitrophenyl)-2-hydroxybenzamide]",inflammatory infiltrates,"[1]; OVA-allergized mice, 3-day treatment",reduced
same,mucus secretion,"[1]; OVA-allergized mice, 3-day treatment, CCH",reduced
same,CCH-induced constriction of the airways,"[1]; OVA-allergized mice, 3-day treatment, carbachol (CCH)",reduces
same,CCH-induced airway contraction,"[1]; OVA-sensitized TMEM16A+/+ and TMEM16A−/− mice, intratracheal for three days before CCH",strongly attenuated
same,mucus synthesis / production,"[1]; OVA-sensitized wt (TMEM16A+/+) and TMEM16A−/− mice, intratracheal for three days before CCH",strongly reduced; also recorded: strongly attenuated
same,OVA-induced mucus production,"[1]; wt mice, tracheal instillation, niflumic acid 20 μM or niclosamide 5 μM",strongly reduced; also recorded: inhibited mucus production
same,TMEM16F current (current/voltage relationship),[2],inhibited; also recorded: inhibition
